Results from article PMC7377239, “Cardiovascular Effects of Polychlorinated Biphenyls and Their Major Metabolites” (Environmental Health Perspectives, 2020).

What was measured:
HUVECs = assay: Tube formation (tubulogenesis) assay in HUVECs, 18 h; assay type: cell-based, human; conditions: HUVECs tube formation, 0.00 µM = 100.00
Procedure, shortened: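 HUVECs (passage 1–5) seeded on reduced-growth-factor basement membrane and exposed to compounds overnight at 37°C, 5% CO2, in 2× maintenance medium with 12.5 ng/mL VEGF; 0.5% DMSO vehicle. Calcein AM-stained tube networks imaged and analysed; vehicle-normalized readouts fit to four-parameter logistic, POD set at one SD of vehicle means.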

[1] = test system: iCell endothelial cells (human iPSC-derived ECs); assay: High-content imaging cytotoxicity in iCell endothelial cells, 24 h; assay type: cell-based; conditions: iPSC-EC, 0.00 µM = 100.00
Procedure, shortened: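 Readouts were vehicle-normalised and fitted to a four-parameter logistic model. POD was set at one SD beyond 0.5% DMSO control means, and 100 µM was assigned when no response was seen. Cells were monolayers of iCell endothelial cells imaged after 24 h compound exposure using nuclear, mitochondrial and calcein dyes.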

Clc1ccc(Cl)c(-c2c(Cl)ccc(Cl)c2Cl)c1Cl [(-)-PCB 136, 2,2′,3,3′,6,6′-hexachlorobiphenyl]
huvec.mtl.18hr (HUVECs; concentration 0.01 µM): 89.52
huvec.tlps.18hr (HUVECs; concentration 0.01 µM): 87.45
huvec.tta.18hr (HUVECs; concentration 0.01 µM): 86.96
huvec.ttl.18hr (HUVECs; concentration 0.01 µM): 85.21
huvec.mtl.18hr (HUVECs; concentration 0.10 µM): 105.15
huvec.tlps.18hr (HUVECs; concentration 0.10 µM): 104.95
huvec.tta.18hr (HUVECs; concentration 0.10 µM): 96.50
huvec.ttl.18hr (HUVECs; concentration 0.10 µM): 89.39
huvec.mtl.18hr (HUVECs; concentration 1.00 µM): 101.33
huvec.tlps.18hr (HUVECs; concentration 1.00 µM): 99.50
huvec.tta.18hr (HUVECs; concentration 1.00 µM): 114.69
huvec.ttl.18hr (HUVECs; concentration 1.00 µM): 103.47
huvec.mtl.18hr (HUVECs; concentration 10.00 µM): 94.11
huvec.tlps.18hr (HUVECs; concentration 10.00 µM): 92.84
huvec.tta.18hr (HUVECs; concentration 10.00 µM): 112.35
huvec.ttl.18hr (HUVECs; concentration 10.00 µM): 101.40
huvec.mtl.18hr (HUVECs; concentration 100.00 µM): 75.12
huvec.tlps.18hr (HUVECs; concentration 100.00 µM): 53.61
huvec.tta.18hr (HUVECs; concentration 100.00 µM): 117.52
huvec.ttl.18hr (HUVECs; concentration 100.00 µM): 95.13
endo.cyto.24hr ([1]; 0.01 µM): 97.58
endo.mito.24hr ([1]; 0.01 µM): 98.40
endo.mitoint.24hr ([1]; 0.01 µM): 92.73
endo.nma.24hr ([1]; 0.01 µM): 101.21
endo.tc.24hrs ([1]; 0.01 µM): 97.58
endo.cyto.24hr ([1]; 0.10 µM): 98.68
endo.mito.24hr ([1]; 0.10 µM): 99.17
endo.mitoint.24hr ([1]; 0.10 µM): 90.73
endo.nma.24hr ([1]; 0.10 µM): 99.07
endo.tc.24hrs ([1]; 0.10 µM): 98.68
endo.cyto.24hr ([1]; 1.00 µM): 92.98
endo.mito.24hr ([1]; 1.00 µM): 93.57
endo.mitoint.24hr ([1]; 1.00 µM): 89.65
endo.nma.24hr ([1]; 1.00 µM): 102.49
endo.tc.24hrs ([1]; 1.00 µM): 92.98
endo.cyto.24hr ([1]; 10.00 µM): 96.25
endo.mito.24hr ([1]; 10.00 µM): 96.58
endo.mitoint.24hr ([1]; 10.00 µM): 86.88
endo.nma.24hr ([1]; 10.00 µM): 101.21
endo.tc.24hrs ([1]; 10.00 µM): 96.25
endo.cyto.24hr ([1]; 100.00 µM): 49.24
endo.mito.24hr ([1]; 100.00 µM): 43.24
endo.mitoint.24hr ([1]; 100.00 µM): 53.93
endo.nma.24hr ([1]; 100.00 µM): 111.21
endo.tc.24hrs ([1]; 100.00 µM): 54.61
